According to PubChem BioAssay AID1919017 (Molecular Pharmacology Branch, DTP, NCI, 2023):

Tested on: SW1271 complex spheroids with HUVEC/MSC, growth, % test/control
Assay: Anticancer human tumor SW1271 cell line growth inhibition [AhR];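 further: spheroids exposed to agents for 7 days before readout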
Conditions: for IC50: curve of first compound; for viability, T/C: stronger effect = lower value
How it was run: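 Complex tumor spheroids co-cultured with HUVEC and human MSC stroma; AhR antagonists tested in combination with standard-of-care and investigational agents. Top concentration at or near clinical Cmax (else 10 microM), half-log dilutions; growth expressed as percent test/control.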

[1] = second compound 0.1 µM, first compound 0.0316 µM
[2] = second compound 0.1 µM, first compound 0.1 µM
[3] = second compound 0.1 µM, first compound 0.316 µM
[4] = second compound 0.1 µM, first compound 1 µM
[5] = second compound 0.1 µM, first compound 3.16 µM
[6] = second compound 0.1 µM, first compound 10 µM
[7] = second compound 0.316 µM, first compound 0.0316 µM
[8] = second compound 0.316 µM, first compound 0.1 µM
[9] = second compound 0.316 µM, first compound 0.316 µM
[10] = second compound 0.316 µM, first compound 1 µM
[11] = second compound 0.316 µM, first compound 3.16 µM
[12] = second compound 0.316 µM, first compound 10 µM
[13] = second compound 1 µM, first compound 0.0316 µM
[14] = second compound 1 µM, first compound 0.1 µM
[15] = second compound 1 µM, first compound 0.316 µM
[16] = second compound 1 µM, first compound 1 µM
[17] = second compound 1 µM, first compound 3.16 µM
[18] = second compound 1 µM, first compound 10 µM
[19] = second compound 3.16 µM, first compound 0.0316 µM
[20] = second compound 3.16 µM, first compound 0.1 µM
[21] = second compound 3.16 µM, first compound 0.316 µM
[22] = second compound 3.16 µM, first compound 1 µM
[23] = second compound 3.16 µM, first compound 3.16 µM
[24] = second compound 3.16 µM, first compound 10 µM
[25] = second compound 10 µM, first compound 0.0316 µM
[26] = second compound 10 µM, first compound 0.1 µM
[27] = second compound 10 µM, first compound 0.316 µM
[28] = second compound 10 µM, first compound 1 µM
[29] = second compound 10 µM, first compound 3.16 µM
[30] = second compound 10 µM, first compound 10 µM

With `CC1(C)CCC(CN2CCN(c3ccc(C(=O)NS(=O)(=O)c4ccc(NCC5CCOCC5)c([N+](=O)[O-])c4)c(Oc4cnc5[nH]ccc5c4)c3)CC2)=C(c2ccc(Cl)cc2)C1` + Cc1cncc(-c2nc(NCCc3c[nH]c4ccccc34)c3ncn(C(C)C)c3n2)c1 the IC50 (second compound 0.1 µM) was greater than 10 µM, the IC50 (second compound 0.316 µM) was greater than 10 µM and the IC50 (second compound 1 µM) was greater than 10 µM. The IC50 (second compound 3.16 µM) was greater than 10 µM, the IC50 (second compound 10 µM) was less than 0.0316 µM and the viability, T/C [1] was 101%. For the same compound, the viability, T/C [2] was 92.7%, the viability, T/C [3] was 101% and the viability, T/C [4] was 116%. It also gave a viability, T/C [5] of 131%, a viability, T/C [6] of 95.7% and a viability, T/C [7] of 95%. It also gave a viability, T/C [8] of 93.3%, a viability, T/C [9] of 102% and a viability, T/C [10] of 88.4%. It also gave a viability, T/C [11] of 101%, a viability, T/C [12] of 125% and a viability, T/C [13] of 95.5%. It also gave a viability, T/C [14] of 79.8%, a viability, T/C [15] of 104% and a viability, T/C [16] of 90.5%. For the same compound, the viability, T/C [17] was 111%, the viability, T/C [18] was 102% and the viability, T/C [19] was 120%. The viability, T/C [20] was 98.5%, the viability, T/C [21] was 102% and the viability, T/C [22] was 94.7%. The viability, T/C [23] was 115%, the viability, T/C [24] was 110% and the viability, T/C [25] was 36.9%. The viability, T/C [26] was 46%, the viability, T/C [27] was 49.5% and the viability, T/C [28] was 33.6%. For the same compound, the viability, T/C [29] was 48.9% and the viability, T/C [30] was 44.9%.

`CCN(c1cc(-c2ccc(CN3CCOCC3)cc2)cc(C(=O)NCc2c(C)cc(C)[nH]c2=O)c1C)C1CCOCC1` + Cc1cncc(-c2nc(NCCc3c[nH]c4ccccc34)c3ncn(C(C)C)c3n2)c1 gave an IC50 (second compound 0.1 µM) greater than 3 µM, an IC50 (second compound 0.316 µM) greater than 3 µM and an IC50 (second compound 1 µM) greater than 3 µM. The IC50 (second compound 3.16 µM) was greater than 3 µM, the IC50 (second compound 10 µM) was less than 0.00949 µM and the viability, T/C (second compound 0.1 µM, first compound 0.00949 µM) was 81%. The viability, T/C (second compound 0.1 µM, first compound 0.03 µM) was 100%, the viability, T/C (second compound 0.1 µM, first compound 0.0949 µM) was 108% and the viability, T/C (second compound 0.1 µM, first compound 0.3 µM) was 97.5%. The viability, T/C (second compound 0.1 µM, first compound 0.949 µM) was 99.7%, the viability, T/C (second compound 0.1 µM, first compound 3 µM) was 118% and the viability, T/C (second compound 0.316 µM, first compound 0.00949 µM) was 99%. The viability, T/C (second compound 0.316 µM, first compound 0.03 µM) was 105%, the viability, T/C (second compound 0.316 µM, first compound 0.0949 µM) was 103% and the viability, T/C (second compound 0.316 µM, first compound 0.3 µM) was 124%. The viability, T/C (second compound 0.316 µM, first compound 0.949 µM) was 106%, the viability, T/C (second compound 0.316 µM, first compound 3 µM) was 115% and the viability, T/C (second compound 1 µM, first compound 0.00949 µM) was 94.6%. The viability, T/C (second compound 1 µM, first compound 0.03 µM) was 112%, the viability, T/C (second compound 1 µM, first compound 0.0949 µM) was 118% and the viability, T/C (second compound 1 µM, first compound 0.3 µM) was 94.1%. It also gave a viability, T/C (second compound 1 µM, first compound 0.949 µM) of 106%, a viability, T/C (second compound 1 µM, first compound 3 µM) of 110% and a viability, T/C (second compound 3.16 µM, first compound 0.00949 µM) of 101%. For the same compound, the viability, T/C (second compound 3.16 µM, first compound 0.03 µM) was 109%, the viability, T/C (second compound 3.16 µM, first compound 0.0949 µM) was 97% and the viability, T/C (second compound 3.16 µM, first compound 0.3 µM) was 87.9%. The viability, T/C (second compound 3.16 µM, first compound 0.949 µM) was 96%, the viability, T/C (second compound 3.16 µM, first compound 3 µM) was 91.2% and the viability, T/C (second compound 10 µM, first compound 0.00949 µM) was 48.8%. It also gave a viability, T/C (second compound 10 µM, first compound 0.03 µM) of 46.5%, a viability, T/C (second compound 10 µM, first compound 0.0949 µM) of 45.2% and a viability, T/C (second compound 10 µM, first compound 0.3 µM) of 38.3%. For the same compound, the viability, T/C (second compound 10 µM, first compound 0.949 µM) was 27.5% and the viability, T/C (second compound 10 µM, first compound 3 µM) was 6.84%.

Compound `Cn1ncnc1C1c2n[nH]c(=O)c3cc(F)cc(c23)NC1c1ccc(F)cc1` (stereo not given) + Cc1cncc(-c2nc(NCCc3c[nH]c4ccccc34)c3ncn(C(C)C)c3n2)c1 has an IC50 (second compound 0.1 µM) greater than 0.1 µM, an IC50 (second compound 0.316 µM) greater than 0.1 µM and an IC50 (second compound 1 µM) greater than 0.1 µM. For the same compound, the IC50 (second compound 3.16 µM) was greater than 0.1 µM, the IC50 (second compound 10 µM) was greater than 0.1 µM and the viability, T/C (second compound 0.1 µM, first compound 0.000316 µM) was 111%. It also gave a viability, T/C (second compound 0.1 µM, first compound 0.001 µM) of 103%, a viability, T/C (second compound 0.1 µM, first compound 0.00316 µM) of 94.4% and a viability, T/C (second compound 0.1 µM, first compound 0.01 µM) of 119%. It also gave a viability, T/C [1] of 110%, a viability, T/C [2] of 107% and a viability, T/C (second compound 0.316 µM, first compound 0.000316 µM) of 96.2%. The viability, T/C (second compound 0.316 µM, first compound 0.001 µM) was 90.7%, the viability, T/C (second compound 0.316 µM, first compound 0.00316 µM) was 88.6% and the viability, T/C (second compound 0.316 µM, first compound 0.01 µM) was 98.2%. It also gave a viability, T/C [7] of 77.4%, a viability, T/C [8] of 91% and a viability, T/C (second compound 1 µM, first compound 0.000316 µM) of 91.8%. The viability, T/C (second compound 1 µM, first compound 0.001 µM) was 103%, the viability, T/C (second compound 1 µM, first compound 0.00316 µM) was 92.4% and the viability, T/C (second compound 1 µM, first compound 0.01 µM) was 95.8%. For the same compound, the viability, T/C [13] was 94.7%, the viability, T/C [14] was 83.3% and the viability, T/C (second compound 3.16 µM, first compound 0.000316 µM) was 103%. It also gave a viability, T/C (second compound 3.16 µM, first compound 0.001 µM) of 105%, a viability, T/C (second compound 3.16 µM, first compound 0.00316 µM) of 88.2% and a viability, T/C (second compound 3.16 µM, first compound 0.01 µM) of 92%. The viability, T/C [19] was 98.6%, the viability, T/C [20] was 94.7% and the viability, T/C (second compound 10 µM, first compound 0.000316 µM) was 44.9%. The viability, T/C (second compound 10 µM, first compound 0.001 µM) was 43.8%, the viability, T/C (second compound 10 µM, first compound 0.00316 µM) was 86.5% and the viability, T/C (second compound 10 µM, first compound 0.01 µM) was 53.5%. It also gave a viability, T/C [25] of 61.3% and a viability, T/C [26] of 40.7%.

In the case of `NS(=O)(=O)OCC1CC(n2ccc3c(NC4CCc5ccccc54)ncnc32)CC1O` (stereo not given) + Cc1cncc(-c2nc(NCCc3c[nH]c4ccccc34)c3ncn(C(C)C)c3n2)c1, the IC50 (second compound 0.1 µM) is reported as greater than 10 µM, the IC50 (second compound 0.316 µM) is reported as greater than 10 µM and the IC50 (second compound 1 µM) is reported as greater than 10 µM. For the same compound, the IC50 (second compound 3.16 µM) was greater than 10 µM, the IC50 (second compound 10 µM) was 0.512 µM and the viability, T/C [1] was 129%. The viability, T/C [2] was 140%, the viability, T/C [3] was 145% and the viability, T/C [4] was 86%. It also gave a viability, T/C [5] of 76.5%, a viability, T/C [6] of 71.8% and a viability, T/C [7] of 131%. The viability, T/C [8] was 177%, the viability, T/C [9] was 136% and the viability, T/C [10] was 100%. The viability, T/C [11] was 76.7%, the viability, T/C [12] was 81% and the viability, T/C [13] was 143%. It also gave a viability, T/C [14] of 166%, a viability, T/C [15] of 154% and a viability, T/C [16] of 76.3%. For the same compound, the viability, T/C [17] was 75%, the viability, T/C [18] was 79% and the viability, T/C [19] was 185%. The viability, T/C [20] was 168%, the viability, T/C [21] was 158% and the viability, T/C [22] was 71.2%. The viability, T/C [23] was 63.3%, the viability, T/C [24] was 66.1% and the viability, T/C [25] was 94.1%. The viability, T/C [26] was 96.3%, the viability, T/C [27] was 54.7% and the viability, T/C [28] was 44.5%. For the same compound, the viability, T/C [29] was 44.4% and the viability, T/C [30] was 41.3%.
